Assay results reported in article PMC10487843, “Evaluation of Anticancer and Anti-Inflammatory Activities of Some Synthetic Rearranged Abietanes” (International Journal of Molecular Sciences, 2023).
Values after ≈ are worked out from the molar mass of the structure shown.

Tests used:
[1] = test system: HT29 cells; assay: Annexin V-FITC/PI flow cytometry apoptosis analysis; type: cell-based, human; conditions: HT29, 72 h; for total apoptosis, % of cell population: control 9%
From the text: To further investigate the potential mechanisms underlying the cytotoxic and cytostatic effects of compounds 5 and 13 on HT29 cells, Annexin V–FITC/PI double staining along with […] cell sorter (FACS) cytometry analysis was employed for determinate apoptosis induction. This assay allowed for the distinction of different cell populations, including normal cells (Annexin V− PI−), early apoptotic cells (Annexin V+ PI−), late apoptotic cells (Annexin V+ PI+), and necrotic cells (Annexin V− PI+).
These assays on the HT29 cell line were conducted 72 h after treatment with the selected rearranged abietanes at their corresponding IC50 and IC80 concentrations.
Flow cytometry was used to detect annexin V-FICT and PI double staining, to quantify the pro-apoptotic impact of compounds 5 and 13. Apoptosis was assessed through flow cytometry using a FACScan flow cytometer (Coulter Corporation, Hialeah, FL, USA). In this assay, 5 × 10^4 HT29 cells were plated in 24-well plates with 1.5 mL of medium and incubated for 24 h. The cells were then treated with the selected compounds in triplicate for 24, 48, and 72 h at their corresponding IC50 and IC80 concentrations. The cells were harvested and resuspended in a binding buffer (10 mM HEPES/NaOH with pH 7.4, 140 mM NaCl, and 2.5 mM CaCl2). Subsequently, Annexin V-FITC conjugate (1 µg/mL) was added and incubated for 15 min in the dark at room temperature. The cells were stained with 5 µL of 1 mg/mL PI solution before analysis. Approximately 10 × 10^3 cells were analyzed in each experiment; the experiments were performed twice, each with three replications per assay.

[2] = test system: NO release in LPS-stimulated RAW 264.7 macrophage cells; assay: Inhibition of nitric oxide production (Griess nitrite assay) in LPS-activated RAW 264.7 macrophages; type: cell-based, murine; conditions: LPS-stimulated RAW 264.7, 48 h; for NO inhibition: ¾ IC50 concentration; for IC50: Mus musculus, RAW264.7
Description: To evaluate the anti-inflammatory activity of the rearranged abietanes (5, 7, 17, and 19) along with their precursor 13, we conducted experiments on RAW 264.7 macrophage cells, a well-known model for screening anti-inflammatory compounds. The macrophages were stimulated with LPS to induce the maximum release of nitric oxide (NO) during the inflammatory response. Subsequently, the different compounds were incubated with the cells at sub-cytotoxic concentrations for 48 h (Figure 9). Next, we determined the concentration of nitrites in the culture medium, which was proportional to the amount of NO release.
Nitrite production was analyzed using the Griess reaction method. The concentration of nitrite was used as an indication of nitric oxide (NO) production. RAW 264.7 cells were seeded at 6 × 10^4 cells/well in 24-well cell culture plates, supplemented with 10 μg/mL of lipopolysaccharide (LPS). […] The Griess reaction was conducted by mixing 150 μL of supernatant test samples or sodium nitrite standard (0–120 μM) with 25 μL of Griess reagent A (0.1% n-(1-naphthyl) ethylenediamine dihydrochloride) and 25 μL of Griess reagent B (1% sulfanilamide in 5% of phosphoric acid) in a 96-well plate. The mixture was incubated at room temperature for 15 min, after which the absorbance was measured at 540 nm using an ELISA plate reader (Tecan Sunrise MR20–301, TECAN, Grödig, Austria). To determine the concentration of nitrite in each sample supernatant, the absorbance was referenced to the nitrite standard curve. To determine the percentage of NO production, the increase between the negative control (untreated cells) and the positive control (cells only with 10 μg/mL of LPS) was assigned 100%.

[3] = RAW 264.7 cell viability (MTT); type: cell-based, murine; conditions: mouse, RAW 264.7 monocyte/macrophage cells; RAW 264.7, MTT, 0–100 μg/mL; read-out: IC50 (cytotoxicity)
Description: To evaluate the cytotoxic effects of the synthesized abietanes (5, 7, 13, 17, and 19) on RAW 264.7 monocyte/macrophage murine cells and to establish sub-cytotoxic concentrations for anti-inflammatory testing, we conducted cell viability assays using the MTT method. Each compound was tested at increasing concentration levels (0–100 μg/mL), and the IC50 values were determined by interpolation in the sigmoidal cytotoxicity curves (Figure 8). […] Additionally, sub-cytotoxic concentrations corresponding to ¾ IC50, ½ IC50, and ¼ IC50 were determined and selected for subsequent anti-inflammatory assays, ensuring that the observed effects were specifically attributed to the anti-inflammatory properties of the compounds rather than cytotoxicity. The human colorectal adenocarcinoma cell line HT29 (ECACC no. 9172201; ATCC no. HTB-38), the human hepatocarcinoma cell line HepG2 (ECACC no. 85011430), the mouse melanoma cells B16–F10 (ATCC no. CRL-6475), and the murine monocyte/macrophage like RAW 264.7 cell line (ATCC no, TIB-71) were obtained from the cell bank of the University of Granada, Spain. The tumor cell lines were cultured in DMEM (Dulbecco’s modified Eagle’s medium) supplemented with 2 mM glutamine, 10% heat-inactivated FCS (fetal calf serum), and 50 μg/mL of gentamicin (for all cancer cell lines). The RAW 264.7 cell line was cultured in RPMI1640 medium, supplemented with 2 mM glutamine, 10% heat-inactivated FCS, and 50 μg/mL of gentamicin. All cell lines were incubated at 37 °C, in an atmosphere of 5% CO2 and 95% humidity. The culture media were changed every 48 h, and the confluent cultures were separated with a trypsin solution (0.25% EDTA). In all experiments, monolayer cells were grown to 80–90% confluence in sterile cell culture flasks. The effects of the compounds on the cell viability were established using the MTT method (Sigma, St. Louis, MO, USA). The cytotoxicity of the compounds was assessed by measuring the absorbance of MTT dye staining of metabolically competent cells. The cells were cultivated in 96-well plates at 6.0 × 10^3 cells/mL for the HT29 and RAW 264.7 cell lines, at 5.0 × 10^3 cells/mL for B16–F10 cells, and 15.0 × 10^3 cells/mL for the HepG2 cell line, with a final volume of 200 μL per well being incubated with the different products (0–100 μg/mL). After 72 h, 100 μL of MTT solution (0.5 mg/mL) in 50% of PBS and 50% of the medium was added to each well. Following incubation for 1.5 h, formazan was resuspended in 100 μL of DMSO, and each concentration was tested in triplicate. The cell viability relative to the untreated control cells was determined by measuring the absorbance at 570 nm using an ELISA plate reader (Tecan Sunrise MR20–301, TECAN, Grödig, Austria).

SMILES	early apoptosis, % of cell population ([1]; IC50 concentration)	late apoptosis, % of cell population ([1]; IC50 concentration)	percentage of necrotic cells ([1]; IC50 concentration, control 3%)	total apoptosis, % of cell population ([1]; IC50 concentration)	early apoptosis, % of cell population ([1]; IC80 concentration)	late apoptosis, % of cell population ([1]; IC80 concentration)	total apoptosis, % of cell population ([1]; IC80 concentration)	NO inhibition [2]	IC50 [2]	IC50 at 72 h [3]
CC(C)C1=CC2=C(C(=O)C1=O)C1=CC(=O)CC(C)(C)[C@@]1(C)C=C2 [Compound 5, Pygmaeocin B]	5%	17%	15%	22%	12%	23%	35%	100%	0.033 ± 0.0008 µg/mL (≈ 0.106 µM)	0.14 ± 0.09 µg/mL (≈ 0.451 µM)
CC(C)C1=CC2=C(C(=O)C1=O)[C@@]1(C)CCCC(C)(C)[C@@H]1CC2 [Compound 13]	6%	12%	–	18%	7%	14%	21%	99.6%	2.03 ± 0.09 µg/mL (≈ 6.76 µM)	8.18 ± 1.86 µg/mL (≈ 27.2 µM)
